Measurements as given in patent US20220323406A1, “METHODS AND COMPOSITIONS FOR DIFFERENTIATING STEM CELLS” (Massachusetts Institute of Technology, priority 2019, published 2022).
Counter-ions that a name gives are not always drawn.

Key:
ENR+CD organoids = experiment: Primary screen: ATP (CellTiter-Glo 3D, CTG) cell number/viability, 2.5-D 384-well ENR+CD organoids; conditions: primary screen;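 further: compounds given at plating and again on day 3 over a 6-day differentiation from ENR+CV stem-cell-enriched precursors, ATP measured on day 6, plate median as control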
[1] = system: ENR+CD organoids (ISC to Paneth cell differentiation); experiment: Primary screen: basal (non-stimulated) lysozyme secretion LYZ.NS, 2.5-D 384-well ENR+CD organoid differentiation; assay type: cell-based, mouse; conditions: primary screen; for Z.LYZ.NS: standard z score
Text: (§1) High-throughput screening.

[2] = system: ENR+CD organoids (ISC to Paneth cell differentiation); experiment: Primary screen: CCh-stimulated lysozyme secretion LYZ.S, 2.5-D 384-well ENR+CD organoid differentiation; assay type: cell-based, mouse; conditions: primary screen
Text: as §1

[3] = dose 0.08 uM, FC vs plate median
[4] = dose 0.40 uM, FC vs plate median
[5] = dose 2.00 uM, FC vs plate median
[6] = dose 10.00 uM, FC vs plate median

SMILES | Dose.FC.CTG (ENR+CD organoids; dose 0.08 uM) [log2 fold change] | Dose.FC.CTG (ENR+CD organoids; dose 0.40 uM) [log2 fold change] | Z.CTG (standard z score) (ENR+CD organoids; dose 0.40 uM) | Dose.FC.CTG (ENR+CD organoids; dose 2.00 uM) [log2 fold change] | Z.CTG (standard z score) (ENR+CD organoids; dose 2.00 uM) | Dose.FC.CTG (ENR+CD organoids; dose 10.00 uM) [log2 fold change] | Z.CTG (standard z score) (ENR+CD organoids; dose 10.00 uM) | Dose.FC.LYZ.NS ([1]; dose 0.08 uM) [log2 fold change] | Z.LYZ.NS (standard z score) ([1]; dose 0.08 uM) | Dose.FC.LYZ.NS ([1]; dose 0.40 uM) [log2 fold change] | Z.LYZ.NS (standard z score) ([1]; dose 0.40 uM) | Dose.FC.LYZ.NS ([1]; dose 2.00 uM) [log2 fold change] | Z.LYZ.NS (standard z score) ([1]; dose 2.00 uM) | Dose.FC.LYZ.NS ([1]; dose 10.00 uM) [log2 fold change] | Z.LYZ.NS (standard z score) ([1]; dose 10.00 uM) | Dose.FC.LYZ.S ([2]; dose 0.08 uM) [log2 fold change] | Dose.FC.LYZ.S ([2]; dose 0.40 uM) [log2 fold change] | Dose.FC.LYZ.S ([2]; dose 2.00 uM) [log2 fold change] | Dose.FC.LYZ.S ([2]; dose 10.00 uM) [log2 fold change] | Dose.FC.CTG (log2 fold change) (ENR+CD organoids; dose 0.40 uM) | also measured
Cc1cc(C)nc(NS(=O)(=O)c2ccc(NC(=S)NC(=O)COc3ccc(Br)cc3Cl)cc2)n1 [ZCL278] | −0.964 | 0.018 | 0.044 | −0.228 | −0.545 | −0.104 | −0.247 | −0.084 | −0.729 | −0.037 | −0.325 | 0.025 | 0.218 | 0.015 | 0.130 | −0.107 | 0.077 | −0.079 | −0.080 | – | Z.CTG (standard z score) (ENR+CD organoids; dose 0.08 uM): −2.303
NC(=O)c1ccc(I)c([N+](=O)[O-])c1 [Iniparib (BSI-201)] | – | – | 0.432 | – | 0.375 | – | 0.583 | – | – | – | 0.003 | – | 0.138 | – | −0.139 | – | – | – | – | 0.181 | Dose.FC.CTG (log2 fold change) (ENR+CD organoids; dose 2.00 uM): 0.157; Dose.FC.CTG (log2 fold change) (ENR+CD organoids; dose 10.00 uM): 0.244; Dose.FC.LYZ.NS (log2 fold change) ([1]; dose 0.40 uM): 0.000; Dose.FC.LYZ.NS (log2 fold change) ([1]; dose 2.00 uM): 0.016; Dose.FC.LYZ.NS (log2 fold change) ([1]; dose 10.00 uM): −0.016; Dose.FC.LYZ.S (log2 fold change) ([2]; dose 0.40 uM): 0.035; Dose.FC.LYZ.S (log2 fold change) ([2]; dose 2.00 uM): −0.001; Dose.FC.LYZ.S (log2 fold change) ([2]; dose 10.00 uM): −0.010
CCOC(=O)[C@H](CCc1ccccc1)N[C@@H](C)C(=O)N1C(=O)N(C)C[C@H]1C(=O)O [Imidapril HCl] | – | – | – | – | – | – | – | – | −0.049 | – | 0.004 | – | 0.121 | – | −0.706 | – | – | – | – | −0.148 | Dose.FC.CTG (log2 fold change) (ENR+CD organoids; dose 0.08 uM): −0.333; Dose.FC.CTG (log2 fold change) (ENR+CD organoids; dose 2.00 uM): −0.236; Dose.FC.CTG (log2 fold change) (ENR+CD organoids; dose 10.00 uM): −0.227; Dose.FC.LYZ.NS (log2 fold change) ([1]; dose 0.08 uM): −0.006; Dose.FC.LYZ.NS (log2 fold change) ([1]; dose 0.40 uM): 0.000; Dose.FC.LYZ.NS (log2 fold change) ([1]; dose 2.00 uM): 0.014; Dose.FC.LYZ.NS (log2 fold change) ([1]; dose 10.00 uM): −0.081; Dose.FC.LYZ.S (log2 fold change) ([2]; dose 0.08 uM): −0.042; Dose.FC.LYZ.S (log2 fold change) ([2]; dose 0.40 uM): 0.109; Dose.FC.LYZ.S (log2 fold change) ([2]; dose 2.00 uM): −0.035; Dose.FC.LYZ.S (log2 fold change) ([2]; dose 10.00 uM): −0.075
Cc1c(Cl)cccc1Nc1ccccc1C(=O)O [Tolfenamic Acid] | 0.196 | −0.003 | – | −0.159 | – | −0.115 | – | 0.028 | 0.242 | 0.023 | 0.200 | 0.107 | 0.927 | −0.039 | −0.343 | 0.118 | 0.052 | −0.023 | −0.064 | – | –
O=C(O)c1ccc(Nc2ncc3c(n2)-c2ccc(Cl)cc2C(c2c(F)cccc2F)=NC3)cc1 [MLN8054] | – | – | – | – | – | – | – | – | – | – | – | – | – | – | – | – | – | – | – | – | Dose.FC.CTG (ENR+CD organoids; [3]): 0.026 log2 fold change; Dose.FC.CTG (ENR+CD organoids; [4]): 0.014 log2 fold change; Dose.FC.CTG (ENR+CD organoids; [5]): −0.465 log2 fold change; Dose.FC.CTG (ENR+CD organoids; [6]): −0.498 log2 fold change; Z.LYZ.NS ([1]; dose 0.08 uM): 0.574; Z.LYZ.NS ([1]; dose 0.40 uM): 0.066; Z.LYZ.NS ([1]; dose 2.00 uM): −0.868; Z.LYZ.NS ([1]; dose 10.00 uM): −0.979; Dose.FC.LYZ.NS [1, 3]: 0.066 log2 fold change; Dose.FC.LYZ.NS [1, 4]: 0.008 log2 fold change; Dose.FC.LYZ.NS [1, 5]: −0.100 log2 fold change; Dose.FC.LYZ.NS [1, 6]: −0.112 log2 fold change; Dose.FC.LYZ.S [2, 3]: 0.042 log2 fold change; Dose.FC.LYZ.S [2, 4]: 0.167 log2 fold change; Dose.FC.LYZ.S [2, 5]: −0.087 log2 fold change; Dose.FC.LYZ.S [2, 6]: −0.197 log2 fold change
